Measurements published in patent US20140271881A1, “ANTISEPTIC COMPOSITION” (priority 2011, published 2014).

Experiments:
[1] = system: acute traumatic or chronic wounds; assay: Clinical study on 6 dogs with acute traumatic or chronic wounds with delayed healing; type: in vivo
Procedure: A clinical study of the effect of the combination used in the present invention was carried out on 6 dogs carrying inflammatory pathological conditions having led to acute traumatic or chronic wounds caused by lesion due to scratching with delayed healing.
The composition of the invention was applied in spray lotion form, twice a day, directly onto the wound to be treated. The results were observed 1 (D1), 2(D2), 3(D3), 5(D5) and 7(D7) days after the 1st application.

[2] = system: traumatic or chronic wounds

Q: Which results are given for `Nc1ccc(S(=O)(=O)Nc2ncccn2)cc1` [sulfadiazine]?
A: Rapidity of response to the applications ([1]; acute or chronic wounds, observed most commonly): such a rapid response is never observed; Effectiveness of treatments carried out previously ([1]; the 6 dogs, before the study): ineffective; Effectiveness on healing [2]: not very effective
